From patent US9896421B2, “Compound having skin-whitening, anti-oxidizing and PPAR activities and medical use thereof” (Pusan National University Industry-University Cooperation …, priority 2011, dated 2018) come the findings set out here.

The structures appear in SMILES notation. Where only a bound is given, the exact number is not on record here.

For series [1], the system named is Mushroom-derived tyrosinase. In words: Tyrosinase inhibitory effect. The class given is biochemical. The conditions noted are these: 1 mM L-tyrosin, pH 6.5, 25° C., 30 minutes, OD492; compared with kojic acid (positive control); FIGS. 4 to 6. The method, then: Mushroom-derived tyrosinase was sued as an enzyme source in the present experiment. Tyrosinase activities were assayed according to a slightly-modified conventionally known method (Life Sci., 1999, 65, 241-246). In detail, 20 μl of a mushroom-derived tyrosinase (1000 units) aqueous solution was added to 96-well microplate (Nunc, Denmark) to prepare 200 μl of the total volume of assay mixture containing 1 mM L-tyrosin solution and 50 mM phosphate buffer solution (pH 6.5). The assay mixture was cultured at a temperature of 25° C. for 30 minutes. After the culturing, an amount of the produced DOPA chrome in the reaction mixture was measured by using a microplate reader (Hewlett Packard) at 492 nm (OD492).

Series [2] has as its system male Balb/c mouse. The series is described as follows: Toxicity test, single oral administration. The class given is in vivo. The conditions noted are these: single oral dose 0.5, 1 and 2 g/kg in 0.5% methylcellulose, observed 7 days. The method, then: A suspension of each of Compound 3, Compound 15, Compound 50, Compound 85, Compound 93, and Compound 115 in a 0.5% methylcellulose solution was orally administered once to a male Balb/c mouse in dosages of 0.5 g/kg, 1 g/kg, and 2 g/kg, and then the survival rate and body weight of the mouse was recorded for 7 days.
After the administration, whether the mouse died, clinical symptoms occurred, and body weight changed were identified and hematologic examination and blood biochemical examination were performed, and autopsy was performed to identify with naked eyes states of abdominal cavity organs and thoracic cavity organs.

Series [3] has as its system ROS generated by vascular endothelial cells (YPEN-1). In words: In vitro ROS scavenging activity assay (DCFDA) in YPEN-1 vascular endothelial cells. The class given is cell-based, rat. Conditions: YPEN-1 cells pre-treated with 50 μM SIN-1 for 1 hour; DCFDA fluorescence; compared with trolox (positive control); FIGS. 1 to 3. The method, then: YPEN-1 cells (rat prostatic endothelial cell line) was obtained from American type culture collection (ATCC, Manassas, Va., USA), and the cells were cultured by using a dulbecco's modified eagle medium (DMEM, Nissui, Tokyo, Japan) containing 2 mM L-glutamine, […], 2.5 mg/L amphotericin B, and 5% inactivated fetal bovine serum (FBS). Also, the cells were maintained at a temperature of 37° C. in a humid atmosphere-like condition containing 5% CO2 and 95% air. […] The cells were sub-cultured in 100 mm plastic flask (Corning Co., New York, USA) every two days to maintain the cell line.
Since the oil-soluble DCFDA was deacetylated into non-fluorescent DCFH due to esterase or oxidative hydrolysis and the DCFH was oxidized due to activity oxgyen to produce highly-fluorescent 2′,7′-dichlorofluorescein (DCF), the present measurement was performed at an excitation wavelength of 485 nm and an emission wavelength of 530 nm by using a fluorophotometer (GENios, TECAN). Vascular endothelial cells that were pre-treated with 50 μM 3-morpholinosydnonimine hydrochloride (SIN-1) for 1 hour were used as a reactive oxygen generation source.

As for `O=C1NC(=O)/C(=C/c2ccc(O)cc2O)S1` [Compound 3, (Z)-5-(2,4-dihydroxybenzylidene)thiazolidine-2,4-dione], in series [1], the tyrosinase inhibitory activities entry is on record as “better tyrosinase inhibitory activities than a kojic acid”. In series [2], the “death and clinical symptoms” value is “neither had distinctive clinical symptoms nor died”; the “toxicity change (body weight change, hematologic examination, blood biochemical examination, autopsy)” value is “toxicity change was not identified”. As a reminder, the melting point is the temperature, or range, at which the solid turns liquid. In turn, `COc1cc(/C=C2\NC(=S)NC2=O)cc(OC)c1O` [Compound 110, (Z)-5-(4-hydroxy-3,5-dimethoxybenzylidene)-2-thioxoimidazolidin-4-one] displayed a melting point of 240.1 to 242.6 °C. For the same compound, in series [3], the “scavenging effects on ROS generated by vascular endothelial cells” value (from here on “scavenging effects on ROS generated”) is reported as “as high scavenging effects on ROS generated by vascular endothelial cells as trolox”. As to `O=C1NC(=O)C(=Cc2ccc(OCc3ccccc3)cc2)C(=O)N1` [Compound 123, 5-(4-(benzyloxy)benzylidene)pyrimidine-2,4,6(1H,3H,5H)-trione], the tyrosinase inhibitory activities entry in series [1] is given as “better tyrosinase inhibitory activities than a kojic acid”.

Consider `O=C1NC(=O)/C(=C/c2ccc(O)cc2)S1` [Compound 1, (Z)-5-(4-hydroxybenzylidene)thiazolidine-2,4-dione], for which, in series [1], the tyrosinase inhibitory activities entry is on record as “better tyrosinase inhibitory activities than a kojic acid”.

As to `O=C1NC(=O)/C(=C/c2ccc(O)c(O)c2)S1` [Compound 2, (Z)-5-(3,4-dihydroxybenzylidene)thiazolidine-2,4-dione], the melting point is more than 300 °C. Besides, the “scavenging effects on ROS generated” value in series [3] is “as high scavenging effects on ROS generated by vascular endothelial cells as trolox”. On the same counts, the results for `O=C1NC(=S)N/C1=C\c1ccc(O)cc1O` [Compound 100, (Z)-5-(2,4-dihydroxybenzylidene)-2-thioxoimidazolidin-4-one] are more than 300 °C and “as high scavenging effects on ROS generated by vascular endothelial cells as trolox”. The compound `COc1ccc(/C=C2\NC(=S)NC2=O)cc1O` [Compound 103, (Z)-5-(3-hydroxy-4-methoxybenzylidene)-2-thioxoimidazolidin-4-one] gave a melting point of 279.6 to 282.2 °C. For the same compound, the tyrosinase inhibitory activities result in series [1] is “better tyrosinase inhibitory activities than a kojic acid”. Turning to `COc1ccc(/C=C2\SC(=O)NC2=O)cc1O` [Compound 6, (Z)-5-(3-hydroxy-4-methoxybenzylidene)thiazolidine-2,4-dione], the melting point lay within 254 to 257.6 °C. In addition, the tyrosinase inhibitory activities result in series [1] is “better tyrosinase inhibitory activities than a kojic acid”. As to `COc1ccc(/C=C2\NC(=O)NC2=O)cc1O` [Compound 29, (Z)-5-(3-hydroxy-4-methoxybenzylidene)imidazolidine-2,4-dione], the melting point was 250.7 to 253.4 °C. The tyrosinase inhibitory activities result in series [1] is on record as “better tyrosinase inhibitory activities than a kojic acid”. Regarding `O=C1NC(=O)C(=Cc2ccc(O)c(O)c2)C(=O)N1` [Compound 15, 5-(3,4-dihydroxybenzylidene)pyrimidine-2,4,6(1H,3H,5H)-trione], in series [1], the tyrosinase inhibitory activities result is “better tyrosinase inhibitory activities than a kojic acid”. In addition, in series [2], the “death and clinical symptoms” value is given as “neither had distinctive clinical symptoms nor died”; the “toxicity change (body weight change, hematologic examination, blood biochemical examination, autopsy)” value is “toxicity change was not identified”. Also, the “scavenging effects on ROS generated” value in series [3] is recorded as “as high scavenging effects on ROS generated by vascular endothelial cells as trolox”. Take `O=C1NC(=S)N/C1=C\c1ccc(O)c(O)c1` [Compound 99, (Z)-5-(3,4-dihydroxybenzylidene)-2-thioxoimidazolidin-4-one]: the melting point is more than 300 °C. Moreover, in series [3], the “scavenging effects on ROS generated” value is “as high scavenging effects on ROS generated by vascular endothelial cells as trolox”. With `COc1ccc(/C=C2\SC(=S)NC2=O)cc1O` [Compound 66, (Z)-5-(3-hydroxy-4-methoxybenzylidene)-2-thioxothiazolidin-4-one], the melting point lay in the range of 210.2 to 212.5 °C. Also, the tyrosinase inhibitory activities entry in series [1] was “better tyrosinase inhibitory activities than a kojic acid”.

With `O=C1NC(=S)N/C1=C\c1cc(O)cc(O)c1` [Compound 106, (Z)-5-(3,5-dihydroxybenzylidene)-2-thioxoimidazolidin-4-one], the melting point was more than 300 °C. Further, the “scavenging effects on ROS generated” value in series [3] is “as high scavenging effects on ROS generated by vascular endothelial cells as trolox”. As for `[H]/N=C1/NC(=O)C(=Cc2ccc(OC)c(O)c2)S1` [Compound 115, (Z)-5-(3-hydroxy-4-methoxybenzylidene)-2-iminothiazolidin-4-one], in series [1], the tyrosinase inhibitory activities result is given as “better tyrosinase inhibitory activities than a kojic acid”. The compound `CCOc1cc(/C=C2\NC(=S)NC2=O)ccc1O` [Compound 102, (Z)-5-(3-ethoxy-4-hydroxybenzylidene)-2-thioxoimidazolidin-4-one] came in with a melting point of 175.4 to 177.2 °C. In addition, the “scavenging effects on ROS generated” value in series [3] is listed as “as high scavenging effects on ROS generated by vascular endothelial cells as trolox”. For `[H]/N=C1/NC(=O)C(=Cc2ccc(O)c(O)c2)N1C` [Compound 75, (Z)-5-(3,4-dihydroxybenzylidene)-2-imino-1-methylimidazolidin-4-one] the same measures were 293 to 295.3 °C and “as high scavenging effects on ROS generated by vascular endothelial cells as trolox”.

On to `O=C1NC(=O)C(=Cc2ccc(O)cc2O)C(=O)N1` [Compound 16, 5-(2,4-dihyroxybenzylidene)pyrimidine-2,4,6(1H,3H,5H)-trione], for which the tyrosinase inhibitory activities result in series [1] was “better tyrosinase inhibitory activities than a kojic acid”. Regarding `COc1cc(/C=C2\N=C(C)OC2=O)cc(OC)c1OC(C)=O` [Compound 95, (Z)-2,6-dimethoxy-4-((2-methyl-5-oxooxazol-4(5H)-ylidene)methyl)phenyl acetate], the “scavenging effects on ROS generated” value in series [3] was “as high scavenging effects on ROS generated by vascular endothelial cells as trolox”. On to `O=C1C/C(=C\c2ccc(O)cc2O)C(=O)N1` [Compound 38, (E)-3-(2,4-dihydroxybenzylidene)pyrrolidine-2,5-dione], for which the melting point was more than 300 °C. The tyrosinase inhibitory activities entry in series [1] was “better tyrosinase inhibitory activities than a kojic acid”.

For the compound `COc1cc(/C=C2\NC(=S)NC2=O)ccc1O` [Compound 101, (Z)-5-(4-hydroxy-3-methoxybenzylidene)-2-thioxoimidazolidin-4-one], in series [3], the “scavenging effects on ROS generated” value is “as high scavenging effects on ROS generated by vascular endothelial cells as trolox”. As to `O=C1NC(=O)/C(=C/c2ccc(O)c(O)c2)N1` [Compound 26, (Z)-5-(3,4-dihydroxybenzylidene)imidazolidine-2,4-dione], the melting point was more than 300 °C. In addition, the “scavenging effects on ROS generated” value in series [3] is listed as “as high scavenging effects on ROS generated by vascular endothelial cells as trolox”.

`COc1ccc(/C=C2\CC(=O)NC2=O)cc1O` [Compound 41, (E)-3-(3-hydroxy-4-methoxybenzylidene)pyrrolidine-2,5-dione]: the melting point lay in the range of 268.7 to 270.3 °C. Further, the tyrosinase inhibitory activities entry in series [1] was “better tyrosinase inhibitory activities than a kojic acid”. `O=C1C/C(=C\c2ccc(O)c(O)c2)C(=O)N1` [Compound 37, (E)-3-(3,4-dihydroxybenzylidene)pyrrolidine-2,5-dione] came in with a melting point of 290.8 to 291.9 °C. Also, the “scavenging effects on ROS generated” value in series [3] is listed as “as high scavenging effects on ROS generated by vascular endothelial cells as trolox”. In the case of `O=C1C/C(=C\c2ccc(O)cc2)C(=O)N1` [Compound 36, (E)-3-(4-hydroxybenzylidene)pyrrolidine-2,5-dione], the melting point was more than 300 °C. In addition, the tyrosinase inhibitory activities entry in series [1] is listed as “better tyrosinase inhibitory activities than a kojic acid”.
